Like-named read-outs stand apart in the source and are kept apart here.

Test in all cases: Determination of MIC values (BHI broth, 96 well microtiter plate)
Format in all cases: cell-based

One assay has as its system Streptococcus pneumoniae. The conditions noted are these: Streptococcus pneumoniae, BHI broth, read-out: MIC S. pneu. The procedure, abridged: (§1)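 Here, each test series spans final concentrations of 25 to 0.39 µg/mL in BHI broth, with DMSO as diluent. Plates seeded at 10^5–10^6 cells/mL are kept at 37° C and approx. 7-10% CO2 for about 16 hours before growth is scored.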

The subject of assay [1] is methicillin-resistant Staphylococcus aureus (MRSA). The conditions noted are these: Staphylococcus aureus, MRSA, BHI broth, read-out: MIC MRSA. The procedure, abridged:
as §1

Assay [2] concerns vancomycin-resistant Enterococcus spp. (VRE). Conditions: Enterococcus, VRE, BHI broth, read-out: MIC VREF. The method, boiled down:
as §1

Setting [3] is: 37° C., overnight (about 16 hours).
Setting [4] is: 16 h, 37° C., overnight (about 16 hours).

Take `CN(C)CCNCC#Cc1ccc2nc(-c3cn(C)c4ccc(Br)cc34)cc(C(=O)NCCN)c2c1` [Example 402]: the MIC was under 7 mg/L in the assay with Streptococcus pneumoniae (37° C., about 16 hours); under 7 mg/L in assay [1] (16 h, 37° C., about 16 hours); under 7 mg/L in assay [2] (16 h, 37° C., about 16 hours).
Turning to `Cc1ccc2nc(-c3c[nH]c4cc(F)ccc34)ccc2c1` [Example 435], the MIC was over 25 mg/L in the assay on Streptococcus pneumoniae (37° C., about 16 hours); over 25 mg/L in assay [1] (16 h, 37° C., about 16 hours); over 25 mg/L in assay [2] (16 h, 37° C., about 16 hours).
With `NCc1ccc(CNC(=O)c2cc(-c3c[nH]c4c(Br)cccc34)nc3ccccc23)cc1` [Example 261], the MIC in the assay with Streptococcus pneumoniae (S. pneu, overnight 37° C.) is under 25 mg/L; in assay [1] (overnight 37° C.) it was under 25 mg/L; in assay [2] (VREF, overnight 37° C.) it was under 25 mg/L.
Take `NCCNC(=O)c1cc(-c2c[nH]c3ccc(Br)cc23)nc2c(Br)cccc12` [Example 315]: the MIC with Streptococcus pneumoniae (S. pneu, overnight 37° C.) was under 7 mg/L; in assay [1] (overnight 37° C.), under 7 mg/L; in assay [2] (VREF, overnight 37° C.) it was under 7 mg/L.
`NCc1ccc(CNC(=O)c2cc(-c3c[nH]c4ccc(Br)cc34)nc3cc(Cl)c(C#CCNCCc4ccc(Cl)cc4)cc23)cc1` [Example 274]: the MIC was under 7 mg/L in the assay on Streptococcus pneumoniae (S. pneu, overnight 37° C.); under 25 mg/L in assay [1] (overnight 37° C.); over 25 mg/L in assay [2] (VREF, overnight 37° C.).
With `Cn1cc(-c2cc(C(=O)NCc3ccc(CN)cc3)c3ccccc3n2)c2cc(Br)ccc21` [Example 119], the values for the MIC (in the assay with Streptococcus pneumoniae (setting [3]); in assay [1] (setting [4]); in assay [2] (setting [4])) were under 7 mg/L, under 7 mg/L and under 25 mg/L, respectively.
`NCCNC(=O)c1cc(-c2c[nH]c3ccc(Br)cc23)nc2ccc(C#CCNCCc3ccccc3)cc12` [Example 527]: the MIC in the assay on Streptococcus pneumoniae (37° C., about 16 hours) is under 7 mg/L; in assay [1] (16 h, 37° C., about 16 hours), under 7 mg/L; in assay [2] (16 h, 37° C., about 16 hours), under 7 mg/L.
Take `NCc1cccc(CNC(=O)c2cc(-c3c[nH]c4ccc(Br)cc34)nc3cc(Br)ccc23)n1` [Example 334]: the MIC with Streptococcus pneumoniae (S. pneu, overnight 37° C.) is under 7 mg/L; in assay [1] (overnight 37° C.) it was under 7 mg/L; in assay [2] (VREF, overnight 37° C.), under 7 mg/L.
As for `NCc1cccc(CNC(=O)c2cc(-c3c[nH]c4ccc(Br)cc34)nc3c(Cl)c(Cl)ccc23)c1` [Example 276], the MIC with Streptococcus pneumoniae (S. pneu, overnight 37° C.) is over 25 mg/L; in assay [1] (overnight 37° C.), under 7 mg/L; in assay [2] (VREF, overnight 37° C.), under 7 mg/L.
Take `COc1ccc2[nH]cc(-c3ccc4cc(Cl)ccc4n3)c2c1` [Example 290]: the MIC is over 25 mg/L in the assay with Streptococcus pneumoniae (S. pneu, overnight 37° C.); over 25 mg/L in assay [1] (overnight 37° C.); over 25 mg/L in assay [2] (VREF, overnight 37° C.).
Turning to `O=C(O)c1cc(-c2c[nH]c3ccc(Br)cc23)nc2cc(F)cc(Cl)c12` [Example 297], the MIC with Streptococcus pneumoniae (S. pneu, overnight 37° C.) is under 25 mg/L; in assay [1] (overnight 37° C.), under 25 mg/L; in assay [2] (VREF, overnight 37° C.), under 25 mg/L.
`CN(CC[N+](C)(C)C)C(=O)c1cc(-c2c[nH]c3ccc(Br)cc23)nc2cc(Cl)ccc12` [Example 520]: the MIC in the assay on Streptococcus pneumoniae (37° C., about 16 hours) was under 7 mg/L; in assay [1] (16 h, 37° C., about 16 hours) it was under 7 mg/L; in assay [2] (16 h, 37° C., about 16 hours) it was under 7 mg/L.
With `NCc1cc(-c2c[nH]c3ccc(Cl)cc23)nc2ccccc12` [Example 372], the MIC is under 7 mg/L in the assay on Streptococcus pneumoniae (S. pneu, overnight 37° C.); under 7 mg/L in assay [1] (overnight 37° C.); under 25 mg/L in assay [2] (VREF, overnight 37° C.).
Consider `O=[N+]([O-])c1cccc2nc(-c3c[nH]c4ccc(Cl)cc34)ccc12` [Example 385], for which the MIC in the assay on Streptococcus pneumoniae (S. pneu, overnight 37° C.) is over 25 mg/L; in assay [1] (overnight 37° C.) it was over 25 mg/L; in assay [2] (VREF, overnight 37° C.), over 25 mg/L.
As for `O=C(Nc1ccc(O)cc1)c1cc(-c2c[nH]c3ccc(Br)cc23)nc2ccc(I)cc12` [Example 175], the MIC in the assay on Streptococcus pneumoniae (setting [3]) is under 7 mg/L; in assay [1] (setting [4]) it was under 7 mg/L; in assay [2] (setting [4]) it was under 25 mg/L.
For `Cn1cc(-c2cc(C(=O)NCC3CCCC(CN)C3)c3cc(I)ccc3n2)c2cc(Br)ccc21` (stereo not drawn) [Example 358], the MIC in the assay with Streptococcus pneumoniae (S. pneu, overnight 37° C.) is under 7 mg/L; in assay [1] (overnight 37° C.) it was under 7 mg/L; in assay [2] (VREF, overnight 37° C.), under 7 mg/L.
As for `COc1ccc2[nH]c(C)c(-c3ccc4cccc(C)c4n3)c2c1` [Example 424], the MIC is under 25 mg/L in the assay with Streptococcus pneumoniae (37° C., about 16 hours); under 25 mg/L in assay [1] (16 h, 37° C., about 16 hours); over 25 mg/L in assay [2] (16 h, 37° C., about 16 hours).
Turning to `Cn1cc(-c2cc(C(=O)NCc3ccc(CN)cc3)c3cc(C#CCN4CCCC4)ccc3n2)c2cc(Br)ccc21` [Example 393], the MIC with Streptococcus pneumoniae (S. pneu, overnight 37° C.) is under 25 mg/L; in assay [1] (overnight 37° C.), under 7 mg/L; in assay [2] (VREF, overnight 37° C.), under 25 mg/L.
With `NCCNC(=O)c1cc(-c2c[nH]c3ccc(Br)cc23)nc2ccc(C#CCN3CCSCC3)cc12` [Example 525], the MIC with Streptococcus pneumoniae (37° C., about 16 hours) is under 7 mg/L; in assay [1] (16 h, 37° C., about 16 hours), under 7 mg/L; in assay [2] (16 h, 37° C., about 16 hours), under 7 mg/L.
